Measurements: patent US20230151049A1, “Compounds Useful in HIV Therapy” (priority 2020, published 2023)
Like-named read-outs stand apart in the source and are kept apart here.

Experiment: in vivo
Details: for concentration at 1 day / concentration at 7 day / concentration at 14 day / concentration at 21 day / concentration at 28 day / concentration at 35 day / concentration at 42 day / concentration at 49 day / concentration at 56 day / concentration at 63 day / concentration at 70 day / concentration at 77 day / concentration at 84 day: male, Wistar Han, rat, in vivo
In short: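 Three male Wistar Han rats (200-250 g), not fasted, received a single intramuscular gastrocnemius injection of prodrug suspension at 20 mg/kg EFdA equivalent. Tail-vein blood was taken into NaF/Na2EDTA, mixed 1:1 with 100 mM ammonium acetate pH 4, frozen, and analysed by LC-MS/MS.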

**Q.** Which results are given for `C#C[C@]1(COP(=O)(N[C@@H](C)C(=O)OC(CCCCCCCCCC)CCCCCCCCCC)Oc2ccccc2)O[C@@H](n2cnc3c(N)nc(F)nc32)C[C@@H]1O` (single isomer, unassigned) [Example 37A]?
**A.** Mean concentration of EFdA (day 21, single IM Example 37A 56 mg/kg): BQL (BQL = below quantification limit, 0.3 ng/ml for both); Mean concentration of EFdA (day 28, single IM Example 37A 56 mg/kg): BQL (BQL = below quantification limit, 0.3 ng/ml for both); Mean concentration of EFdA (day 35, single IM Example 37A 56 mg/kg): BQL (BQL = below quantification limit, 0.3 ng/ml for both); Mean concentration of EFdA (day 42, single IM Example 37A 56 mg/kg): BQL (BQL = below quantification limit, 0.3 ng/ml for both); Mean concentration of EFdA (day 49, single IM Example 37A 56 mg/kg): BQL (BQL = below quantification limit, 0.3 ng/ml for both); Mean concentration of EFdA (day 56, single IM Example 37A 56 mg/kg): BQL (BQL = below quantification limit, 0.3 ng/ml for both); Mean concentration of EFdA (day 63, single IM Example 37A 56 mg/kg): BQL (BQL = below quantification limit, 0.3 ng/ml for both); Mean concentration of EFdA (day 70, single IM Example 37A 56 mg/kg): BQL (BQL = below quantification limit, 0.3 ng/ml for both); Mean concentration of EFdA (day 77, single IM Example 37A 56 mg/kg): BQL (BQL = below quantification limit, 0.3 ng/ml for both); Mean concentration of EFdA (day 84, single IM Example 37A 56 mg/kg): BQL (BQL = below quantification limit, 0.3 ng/ml for both); concentration at 1 day (day 1, single IM Example 37A 56 mg/kg, read-out: Mean concentration of Example 37A): 17.9 ng/mL; concentration at 7 day (day 7, single IM Example 37A 56 mg/kg, read-out: Mean concentration of Example 37A): 3.58 ng/mL; concentration at 14 day (day 14, single IM Example 37A 56 mg/kg, read-out: Mean concentration of Example 37A): 3.8 ng/mL; concentration at 21 day (day 21, single IM Example 37A 56 mg/kg, read-out: Mean concentration of Example 37A): 5.16 ng/mL; concentration at 28 day (day 28, single IM Example 37A 56 mg/kg, read-out: Mean concentration of Example 37A): 4.16 ng/mL; concentration at 35 day (day 35, single IM Example 37A 56 mg/kg, read-out: Mean concentration of Example 37A): 4.95 ng/mL; concentration at 42 day (day 42, single IM Example 37A 56 mg/kg, read-out: Mean concentration of Example 37A): 5.29 ng/mL; concentration at 49 day (day 49, single IM Example 37A 56 mg/kg, read-out: Mean concentration of Example 37A): 4.89 ng/mL; concentration at 56 day (day 56, single IM Example 37A 56 mg/kg, read-out: Mean concentration of Example 37A): 4.94 ng/mL; concentration at 63 day (day 63, single IM Example 37A 56 mg/kg, read-out: Mean concentration of Example 37A): 4.46 ng/mL; concentration at 70 day (day 70, single IM Example 37A 56 mg/kg, read-out: Mean concentration of Example 37A): 3.78 ng/mL; concentration at 77 day (day 77, single IM Example 37A 56 mg/kg, read-out: Mean concentration of Example 37A): 3.46 ng/mL; concentration at 84 day (day 84, single IM Example 37A 56 mg/kg, read-out: Mean concentration of Example 37A): 3.32 ng/mL

**Q.** What does the source list for `C#C[C@]1(COP(=O)(N[C@@H](Cc2ccccc2)C(=O)OC(CCCCCCCCCCC)CCCCCCCCCCC)Oc2ccccc2)O[C@@H](n2cnc3c(N)nc(F)nc32)C[C@@H]1O` (single isomer, unassigned) [Example 26A]?
**A.** Mean concentration of EFdA (day 1, single IM Example 26A 63 mg/kg): BQL (BQL = below quantification limit, 0.3 ng/ml for both); Mean concentration of EFdA (day 7, single IM Example 26A 63 mg/kg): BQL (BQL = below quantification limit, 0.3 ng/ml for both); Mean concentration of EFdA (day 14, single IM Example 26A 63 mg/kg): BQL (BQL = below quantification limit, 0.3 ng/ml for both); Mean concentration of EFdA (day 21, single IM Example 26A 63 mg/kg): BQL (BQL = below quantification limit, 0.3 ng/ml for both); Mean concentration of EFdA (day 28, single IM Example 26A 63 mg/kg): BQL (BQL = below quantification limit, 0.3 ng/ml for both); Mean concentration of EFdA (day 35, single IM Example 26A 63 mg/kg): BQL (BQL = below quantification limit, 0.3 ng/ml for both); Mean concentration of EFdA (day 42, single IM Example 26A 63 mg/kg): BQL (BQL = below quantification limit, 0.3 ng/ml for both); Mean concentration of EFdA (day 49, single IM Example 26A 63 mg/kg): BQL (BQL = below quantification limit, 0.3 ng/ml for both); Mean concentration of EFdA (day 56, single IM Example 26A 63 mg/kg): BQL (BQL = below quantification limit, 0.3 ng/ml for both); Mean concentration of EFdA (day 63, single IM Example 26A 63 mg/kg): BQL (BQL = below quantification limit, 0.3 ng/ml for both); Mean concentration of EFdA (day 70, single IM Example 26A 63 mg/kg): BQL (BQL = below quantification limit, 0.3 ng/ml for both); Mean concentration of EFdA (day 77, single IM Example 26A 63 mg/kg): BQL (BQL = below quantification limit, 0.3 ng/ml for both); Mean concentration of EFdA (day 84, single IM Example 26A 63 mg/kg): BQL (BQL = below quantification limit, 0.3 ng/ml for both); concentration at 1 day (day 1, single IM 63 mg/kg, read-out: Mean concentration of Example 26A): 72.7 ng/mL; concentration at 7 day (day 7, single IM 63 mg/kg, read-out: Mean concentration of Example 26A): 37.6 ng/mL; concentration at 14 day (day 14, single IM 63 mg/kg, read-out: Mean concentration of Example 26A): 33.8 ng/mL; concentration at 21 day (day 21, single IM 63 mg/kg, read-out: Mean concentration of Example 26A): 22.9 ng/mL; concentration at 28 day (day 28, single IM 63 mg/kg, read-out: Mean concentration of Example 26A): 18.5 ng/mL; concentration at 35 day (day 35, single IM 63 mg/kg, read-out: Mean concentration of Example 26A): 14.4 ng/mL; concentration at 42 day (day 42, single IM 63 mg/kg, read-out: Mean concentration of Example 26A): 11.1 ng/mL; concentration at 49 day (day 49, single IM 63 mg/kg, read-out: Mean concentration of Example 26A): 9.62 ng/mL; concentration at 56 day (day 56, single IM 63 mg/kg, read-out: Mean concentration of Example 26A): 9.8 ng/mL; concentration at 63 day (day 63, single IM 63 mg/kg, read-out: Mean concentration of Example 26A): 11.5 ng/mL; concentration at 70 day (day 70, single IM 63 mg/kg, read-out: Mean concentration of Example 26A): 9.95 ng/mL; concentration at 77 day (day 77, single IM 63 mg/kg, read-out: Mean concentration of Example 26A): 9.69 ng/mL; concentration at 84 day (day 84, single IM 63 mg/kg, read-out: Mean concentration of Example 26A): 7.43 ng/mL
